Laboratory results taken from publication PMC8536627, “Hydrolytic stability of anticancer drugs and one metabolite in the aquatic environment” (Environmental Science and Pollution Research International, 2021).
Several values for one entry are separate records, joined by “and”; a condition that tells them apart may be missing. Equal values may be shown once. Entries after “also recorded” stand apart in the source; their conditions may differ. Read-outs that look alike come from different tables or passages of the source.

How the values were obtained:
[1] = parameters: method as in Białk-Bielińska et al. [2017]; settings: ref Białk-Bielińska et al. [2017]; cited from earlier work
[2] = parameters: method as in Negreira et al. ([2013b]); settings: acidification of samples, organic modifier such as 50 % methanol or DMSO, previously tested conditions; ref Negreira et al. ([2013b]); cited from earlier work
[3] = HPLC water with 4 % DMSO, ref Negreira et al. ([2013a]), cited from earlier work
physchem [4] = settings: for Hydrolytic stability in the preliminary test: pH 4, 7 and 9, 50 °C; for Hydrolytic stability in the preliminary test / Degradation level in the preliminary test: 5 days; for Degradation level in the preliminary test: dark
Experimental: The incubation was performed in the dark, in order to avoid the influence of the photolysis on degradation of the analytes. The water used for the preparation of buffers was autoclaved, all glassware was clean, flushed with methanol, and dried in high temperature. Samples were closed in glass tubes with a sealed cap. The air from above the solution was removed by a nitrogen stream just before capping. In the preliminary test, solutions of single analytes were prepared in each tested pH: 4, 7, and 9, which is required by the OECD guidelines. There was also a blank sample prepared for each pH. Samples in the preliminary test were prepared in two parallel replicates. Moreover, the complete preliminary test was repeated twice. The preliminary test was performed at 50 °C for 5 days. […] In the case of the extended tests, 7 measuring points were provided during the time of the test. Each measuring point was performed in two parallel replicates. […] The test was conducted for 30 days or to 90 % elimination of a compound. Obtained results were used to determine the hydrolysis rate constant (k) using equation: 1 lnCt/C0=kt
The HPLC-UV/Vis technique was applied to determine the level of hydrolytic degradation of the analytes. In the preliminary test, the control and blank samples were analyzed at the beginning and the end of the test. […] In the extended test, the samples collected in the time intervals were analyzed, and peak areas were compared to those obtained at the beginning of the test. This was used to determine the kinetic of this hydrolysis process by using the Equation 1. In general, each analyte was analyzed by a simple HPLC method with UV/Vis detection. Gemini C18 (Phenomenex, USA), 5 μm, 110 Å, 150 mm × 4.6 mm chromatographic column was applied for each method and three different mobile phases were used (water or 0.1 % HCOOH) mixed with the acetonitrile. The conditions applied during the LC-MS analysis with an ion trap detector for the qualitative analysis of the samples collected after the extended tests at 20 and 70 °C are presented in the Table S2.

physchem [5] = format: physicochemical; settings: for half-life: buffer
Experimental: Moreover, the complete preliminary test was repeated twice. […] Each measuring point was performed in two parallel replicates.
where t, time; ct, c0, concentration of the analyte at a time (0 means the beginning of the test); k, rate constant.
Based on this, the t1/2 was determined by using the equation: 2 t1/2=ln2/k
where t1/2, half-life of the analyte; k, rate constant.
The degradation was monitored for 30 days or until 90 % of a compound was degraded. Based on the obtained results (Fig. 4) the constant rates (k) and half-lives (t1/2) have been calculated (Table 1).
After determining the hydrolysis rate constants it was possible to calculate activation energy (Ea) of this process at each pH, either from plotting ln k from T^−1 (Figure 5) when there were three k values obtained for each compound and pH (CP at pH 4, 7, and 9 as well as IF at pH 4) or from the following equation (for IF at pH 7 and 9, where only two k values were obtained) (Table 1): 4 E=Rlnk2−lnk1/1/T1¯−1/T2
where R, gas constant (8.314 J/mol × K); k1, k2, rate constants for different temperatures; T, absolute temperature (K).

physchem [6] = format: physicochemical; settings: for half-life: buffer, read-out: t½, extrapolated half-life (converted)
Experimental: By obtaining at least two rate constants for two different temperatures, it is possible to calculate the rate constants and, in consequence, half-lives at other temperatures, according to the Arrhenius equation: 3 k=A×e^−E/R×Torlnk=−E/R×T+lnA
Therefore, these equations were applied to extrapolate the obtained results and calculate the rate constants and half-lives of unstable anticancer drugs in more environmentally relevant temperatures (4, 10, or 15 °C), which are typical to natural waters.
Additionally, these observations confirm that CP is much more vulnerable for hydrolysis than IF, which is interesting how two isomers (like CP and IF) may differently undergo hydrolysis process. […] If the conclusions were drawn only based on the results from the preliminary experiments (incubation at 50 °C for 5 days), it would be assumed that both compounds, especially CP, are very unstable. […] Moreover, using Equation 3, it was possible to extrapolate the results to determine the rate constants and half-lives at the temperatures 4, 10, and 15 °C, which are ordinary for environmental waters (Table 2).

[7] = parameters: method as in Muñoz et al. ([1996]); settings: 20 °C, pH 5; ref Muñoz et al. ([1996]); cited from earlier work
[8] = milli-Q water, room temperature, natural pH; ref Franquet-Griell et al. [2017]; cited from earlier work
[9] = ref Gómez-Canela et al. [2015], cited from earlier work

In the case of `CN(Cc1nc2c(N)nc(N)nc2nc1O)c1ccc(C(=O)N[C@@H](CCC(=O)O)C(=O)O)cc1` [7-OH-MTX, 7-hydroxymethotrexate], the “Hydrolytic stability under ecotoxicological test conditions” value [1] is given as “hydrolytically stable”, the “Photolytic stability under ecotoxicological test conditions” value [1] is given as “susceptible to photolysis” and the “Stability after acidification and with organic modifier” value [2] is given as “stable”. For the same compound, the Remained intact ([3]; 4 °C, 24 h) was 86%, the “Concentration decreased to” value ([3]; 4 °C, after 9 days) was “around 50%” and the “Stability in 24 h test” value ([3]; 15 °C, 24 h) was “none of the 7-OH-MTX left in the solution”. The “Degradation level / loss” value ([3]; 25 °C, 24 h incubation) was “full degradation”, the half-life (physchem [4]; aqueous buffer) was at least 365 days and the “Hydrolytic stability in the preliminary test” value (physchem [4]) was “hydrolytically stable”. The “Degradation level in the preliminary test” value (physchem [4]; pH 4, 50 °C) was 7%.
For `O=P1(NCCCl)OCCCN1CCCl` (stereo not drawn) [IF, ifosfamide], the “Degradation in 30 days” value (physchem [5]; 20 °C, pH 7) was “no degradation occurred; also recorded: no changes in the initial concentration; also recorded: completely stable”, the “Degradation in 30 days” value (physchem [5]; 20 °C, pH 9) was “no degradation occurred; also recorded: no changes in the initial concentration; also recorded: completely stable” and the “k, hydrolysis rate constant” value (physchem [5]; 20 °C, pH 4) was 0.00038 h⁻¹. The “k, hydrolysis rate constant” value (physchem [5]; 50 °C, pH 4) was 0.008 h⁻¹, the “k, hydrolysis rate constant” value (physchem [5]; 50 °C, pH 7) was 0.0029 h⁻¹ and the “k, hydrolysis rate constant” value (physchem [5]; 50 °C, pH 9) was 0.0036 h⁻¹. The “k, hydrolysis rate constant” value (physchem [5]; 70 °C, pH 4) was 0.059 h⁻¹, the “k, hydrolysis rate constant” value (physchem [5]; 70 °C, pH 7) was 0.041 h⁻¹ and the “k, hydrolysis rate constant” value (physchem [5]; 70 °C, pH 9) was 0.049 h⁻¹. It also gave a half-life (physchem [5]; pH 4, 20 °C, pH 4, read-out: Half-life (converted)) of about 80 days, a half-life (physchem [5]; pH 4, 20 °C, pH 4, read-out: t½, half-life (converted)) of 76.8 days and a half-life (physchem [5]; pH 4, 50 °C, pH 4, read-out: t½, half-life (converted)) of 3.6 days. The half-life (physchem [5]; pH 4, 70 °C, pH 4, read-out: t½, half-life (converted)) was 0.488 days, the half-life (physchem [5]; pH 7, 50 °C, pH 7, read-out: t½, half-life (converted)) was 10.1 days and the half-life (physchem [5]; pH 7, 70 °C, pH 7, read-out: t½, half-life (converted)) was 0.704 days. The half-life (physchem [5]; pH 9, 50 °C, pH 9, read-out: t½, half-life (converted)) was 7.99 days, the half-life (physchem [5]; pH 9, 70 °C, pH 9, read-out: t½, half-life (converted)) was 0.583 days and the “Ea, activation energy of hydrolysis” value (physchem [5]; pH 4) was 84.2 kJ/mol. For the same compound, the “Ea, activation energy of hydrolysis” value (physchem [5]; pH 7) was 122.2 kJ/mol, the “Ea, activation energy of hydrolysis” value (physchem [5]; pH 9) was 122.2 kJ/mol and 120.1 kJ/mol and the “k, extrapolated rate constant” value (physchem [6]; 4 °C, pH 4) was 8.3e-05 h⁻¹. The “k, extrapolated rate constant” value (physchem [6]; 4 °C, pH 7) was 3e-06 h⁻¹, the “k, extrapolated rate constant” value (physchem [6]; 4 °C, pH 9) was 4e-06 h⁻¹ and the “k, extrapolated rate constant” value (physchem [6]; 10 °C, pH 4) was 0.000107 h⁻¹. For the same compound, the “k, extrapolated rate constant” value (physchem [6]; 10 °C, pH 7) was 5e-06 h⁻¹, the “k, extrapolated rate constant” value (physchem [6]; 10 °C, pH 9) was 6e-06 h⁻¹ and the “k, extrapolated rate constant” value (physchem [6]; 15 °C, pH 4) was 0.000199 h⁻¹. The “k, extrapolated rate constant” value (physchem [6]; 15 °C, pH 7) was 1.1e-05 h⁻¹, the “k, extrapolated rate constant” value (physchem [6]; 15 °C, pH 9) was 1.6e-05 h⁻¹ and the half-life (physchem [6]; pH 4, 4 °C, pH 4) was 349 days. The half-life (physchem [6]; pH 4, 10 °C, pH 4) was 271 days, the half-life (physchem [6]; pH 4, 15 °C, pH 4) was 146 days and the half-life (physchem [6]; pH 7, 10 °C, pH 7) was 6360 days. For the same compound, the half-life (physchem [6]; pH 7, 15 °C, pH 7) was 2580 days, the half-life (physchem [6]; pH 9, 4 °C, pH 9) was 6510 days and the half-life (physchem [6]; pH 9, 10 °C, pH 9) was 4520 days. The half-life (physchem [6]; pH 9, 15 °C, pH 9) was 1860 days, the half-life [7] was “around 620 days” and the “Degradation level in the preliminary test” value (physchem [4]; pH 7, 50 °C) was 22.3%. The “Degradation level in the preliminary test” value (physchem [4]; pH 9, 50 °C) was 27.5%.
With `Cc1ccc(NC(=O)c2ccc(CN3CCN(C)CC3)cc2)cc1Nc1nccc(-c2cccnc2)n1` [IMT, imatinib] the “Hydrolytic stability in the preliminary test” value (physchem [4]) was “hydrolytically stable”.
For `CCCCCOC(=O)Nc1nc(=O)n([C@@H]2O[C@H](C)[C@@H](O)[C@H]2O)cc1F` [capecitabine], the “Hydrolytic stability in milli-Q water” value [8] is listed as “stable”.
In the case of `O=C(O)CCCc1ccc(N(CCCl)CCCl)cc1` [chlorambucil], the “Hydrolytic stability in milli-Q water” value [8] is given as “highly unstable”, the “Remaining part degraded within 24 h” value ([9]; hard water, initial concentration 10 ng μL^−1, within 24 h) is given as 19% and the “Transformed at the beginning of the test” value ([9]; hard water, initial concentration 10 ng μL^−1) is given as 81%. The “Transformation in hard water” value ([9]; initial concentration 2 ng μL^−1) was “instant and complete transformation”.
For `COc1cccc2c1C(=O)c1c(O)c3c(c(O)c1C2=O)C[C@@](O)(C(C)=O)C[C@@H]3O[C@H]1C[C@H](N)[C@H](O)[C@H](C)O1` [daunorubicin], the “Hydrolytic stability in milli-Q water” value [8] is listed as “highly unstable”.
For `COc1cccc2c1C(=O)c1c(O)c3c(c(O)c1C2=O)C[C@@](O)(C(=O)CO)C[C@@H]3O[C@H]1C[C@H](N)[C@H](O)[C@H](C)O1` [doxorubicin], the “Hydrolytic stability in milli-Q water” value [8] is listed as “highly unstable”.
In the case of `Nc1ccn([C@@H]2O[C@H](CO)[C@@H](O)C2(F)F)c(=O)n1` [gemcitabine], the “Hydrolytic stability in milli-Q water” value [8] is given as “stable”.
In the case of `CCc1c2c(nc3ccc(OC(=O)N4CCC(N5CCCCC5)CC4)cc13)-c1cc3c(c(=O)n1C2)COC(=O)[C@]3(O)CC` [irinotecan], the “Hydrolytic stability in milli-Q water” value [8] is given as “highly unstable”.
For `N[C@@H](Cc1ccc(N(CCCl)CCCl)cc1)C(=O)O` [melphalan], the “Hydrolytic stability in milli-Q water” value [8] is listed as “highly unstable”.
In the case of `COc1c(C)c2c(c(O)c1C/C=C(\C)CCC(=O)O)C(=O)OC2` [mycophenolic acid], the “Hydrolytic stability in milli-Q water” value [8] is listed as “stable”.
For `CC[C@]1(O)C[C@H]2CN(CCc3c([nH]c4ccccc34)[C@@](C(=O)OC)(c3cc4c(cc3OC)N(C=O)[C@H]3[C@@](O)(C(=O)OC)[C@H](OC(C)=O)[C@]5(CC)C=CCN6CC[C@]43[C@@H]65)C2)C1` [vincristine], the “Hydrolytic stability in milli-Q water” value [8] is listed as “highly unstable”.
